This note sets out measurements from PubChem BioAssay AID602210 (Sanford-Burnham Center for Chemical Genomics, 2012).

The source made the active and inactive calls. No rule for the calls is given here. A value given as a limit tells only on which side of the number the result lay.

The nature of this test: H9c2 cardiomyoblast viability modulators under 2-DG – cell-based, ATPlite luminescence, rat, set 2, myocardial damage modulator project, dose response (AID 602210). As to conditions: H9c2 rat cardiomyoblasts, 2-deoxyglucose-induced death, 2 h.
Turning to `CC(=O)Nc1ccc(C(=O)N/N=C/c2ccccc2OC(=O)c2ccc(Cl)cc2)cc1`, the IC50 (commonly the point on the concentration scale where inhibition reaches its midpoint) is 14.7 µM (inactive).

For `O=C(Nc1cccc(/C=C/c2ccccn2)c1)c1ccc(-n2cncn2)cc1`, the IC50 was > 79 µM (inactive).

In the case of `NC(=O)c1nsc(C(=O)N(c2ccccc2F)C(C(=O)NCc2ccccc2)c2ccc(O)cc2)c1N` (stereo not given), the IC50 was 3.04 µM.

Regarding `CC1(C)Oc2ccc3ccc(=O)oc3c2/C(=C/Nc2ccccn2)C1=O`, the IC50 is 12.4 µM (inactive).

As to `COc1ccccc1OCC(=O)N/N=C/c1cccc2cccnc12`, the IC50 was > 79 µM (inactive).

In the case of `COc1ccc(-c2nc(NC(=O)c3ccc(OCC(=O)N4CCOCC4)c(OC)c3)sc2C)cc1`, the IC50 is 23.7 µM (inactive).

In the case of `COc1cc(-c2cc(NC=O)c3ncc(-c4ccc(C(C)=O)cc4)n3c2)ccc1O`, the IC50 is > 79 µM (inactive).

`CCOC(=O)C1=C(COC(=O)c2cc(OC)c(OC)c(OC)c2)NC(=O)NC1C` (stereo not given): the IC50 is 42.8 µM (inactive).

`Cc1ccc(S(=O)(=O)N2CCN(C(=O)c3cc(=O)[nH]c4ccccc34)CC2)c(C)c1`: the IC50 was 23 µM (inactive).

Regarding `CC12CCC3C(CCC4CC(O)CCC43C)C1CC(O)C2` (stereo not given), the IC50 is 10.4 µM (inactive).

`O=C(COc1cccc(NC(=O)c2cccc([N+](=O)[O-])c2)c1)c1ccc(F)cc1`: the IC50 was 11.2 µM (inactive).

Consider `COc1cccc(Nc2nc(-c3sc(NC(=O)c4ccco4)nc3C)cs2)c1`, for which the half-inhibitory concentration (IC50) was 9.04 µM.

`COc1cc(NC(=O)c2ccco2)c(OC)cc1NC(=O)c1cc(OC)c(OC)c(OC)c1`: the IC50 is 7.97 µM.

For the compound `COc1ccc(-c2cc(NC=O)c3ncc(-c4ccc(C(C)=O)cc4)n3c2)cn1`, the IC50 is 10.1 µM (inactive).

As for `COc1cc(-c2cc(C(=O)Nc3ccccc3N3CCOCC3)c3ccccc3n2)cc(OC)c1OC`, the IC50 is 11.2 µM (inactive).

With `CCOc1ccc(S(=O)(=O)N(C)CCO)cc1-c1nc2c(C(C)(C)C)nn(C)c2c(=O)[nH]1`, the IC50 is 33.2 µM (inactive).

As to `COc1cc2c(C#CCCCO)c(-c3ccsc3)oc(=O)c2cc1OC`, the 50% inhibitory concentration (IC50) is 5.66 µM.

In the case of `CC1(C)Cc2c(c(N3CCOCC3)nc3sc4c(NN)ncnc4c23)CS1`, the IC50 was > 79 µM (inactive).

Take `COc1cccc(-c2cnc3c(NC(C)=O)cc(-c4cc(OC)c(OC)c(OC)c4)cn23)c1`: the IC50 was > 79 µM (inactive).

As to `COc1ccc(-c2csc(NC(=O)c3ccc(OCC(=O)N4CCOCC4)c(OC)c3)n2)cc1OC`, the IC50 is 10.9 µM (inactive).

As to `O=C(CN1CCN(c2ccccn2)CC1)Nc1ccc([N+](=O)[O-])cc1C(=O)Nc1ccccc1F`, the IC50 was 12.8 µM (inactive).

As to `COC(=O)c1cccc(S(=O)(=O)N(Cc2ccco2)Cc2cc3cc(OC)ccc3[nH]c2=O)c1`, the IC50 is 11.6 µM (inactive).

On to `O=C(N/N=C/c1ccccn1)c1cc(-c2cccc3ccccc23)n[nH]1`, for which the IC50 was 20.7 µM (inactive).

`CC(C)(C)OC(=O)C[C@@H]1C/C=C\C[C@@H](CC(=O)N[C@@H](CO)Cc2ccccc2)C(=O)NC[C@@H](c2ccccc2)OC1=O`: the IC50 is 22.6 µM (inactive).

For the compound `O=C(Nc1nc(-c2cc(F)ccc2F)cs1)C1=NN(c2ccccc2)C(=O)CC1`, the IC50 is 14.2 µM (inactive).

On to `COc1ccc(-c2nnc(-c3cc(OC)c(OC)c(OC)c3)o2)cc1OC`, for which the IC50 is 15.9 µM (inactive).

As to `COc1ccc(NC(=O)c2cc(-c3ccc(OC)c(OC)c3)nc3ccccc23)c(OC)c1`, the IC50 was > 79 µM (inactive).

Consider `O=C(Nc1ccccc1)c1nc[nH]c1C(=O)NCCCCCCNC(=O)c1[nH]cnc1C(=O)Nc1ccccc1`, for which the IC50 was 4.44 µM.

In the case of `O=C(CNC(=O)c1nc[nH]c1C(=O)NCc1ccccc1)OCc1ccccc1`, the concentration for half-maximal inhibition (IC50) was 5.21 µM.

On to `Cc1c(C(=O)NCC2COc3ccccc3O2)oc2ccc(S(=O)(=O)N3CCOCC3)cc12` (stereo not given), for which the IC50 is 5.65 µM.

`COc1cccc(-c2cnc3c(NC=O)cc(-c4cccc(NC(C)=O)c4)cn23)c1`: the IC50 is 6.84 µM.

With `COC(=O)c1cc2c(C)c(C)c3ccccn3c-2c1C(=O)OC`, the IC50 was 7.29 µM.

`CC(C)=NNc1cnnc2ccc([N+](=O)[O-])cc12`: the IC50 is 13.4 µM (inactive).

Turning to `N#C/C(=C\c1ccc(-c2cccc([N+](=O)[O-])c2)o1)C(=O)NCCN1CCOCC1`, the IC50 was > 79 µM (inactive).

As to `O=C(CCCN1C(=O)c2cccc3cccc(c23)C1=O)N1CCN(c2ccccc2O)CC1`, the IC50 was 19.5 µM (inactive).

On to `CCOc1ccc(C(C(=O)NCC2CCCO2)N(C(=O)c2snc(C(N)=O)c2N)c2ccccc2F)cc1` (stereo not given), for which the IC50 was 24 µM (inactive).

For `Cn1c(=O)n(CCc2ccccc2)c(=O)c2c1nc1n2CCCN1Cc1ccccc1`, the IC50 was 14.5 µM (inactive).

As for `COc1ccccc1CN(C(=O)CNC(=O)c1ccco1)C(C(=O)NCC1CCCO1)c1ccccc1` (stereo not given), the IC50 was 9.47 µM.

`CCOc1ccc2nc(NC(=O)CN3CCC(n4nnc5cc(F)ccc54)CC3)sc2c1`: the IC50 is 15.9 µM (inactive).

Consider `COc1cccc(/C=N/NC(=O)c2oc3nc(-c4ccccc4)cc(-c4ccco4)c3c2N)c1`, for which the IC50 was 10.5 µM (inactive).

Turning to `CC(=O)NCc1ccc(-c2csc(NC(=O)CCc3nc4ccccc4c(=O)[nH]3)n2)s1`, the IC50 is 28.5 µM (inactive).

In the case of `CC(C(=O)NC1CCCC1)N(C(=O)Cn1nnc(-c2ccc(F)cc2)n1)c1ccccc1F` (stereo not given), the IC50 was 11.3 µM (inactive).

Regarding `CNC(=O)c1ccc(-c2sc3nc(N4CCOCC4)c4c(c3c2N)CC(C)(C)OC4)o1`, the IC50 was 21.3 µM (inactive).

Take `CCOC(=O)c1c(C)[nH]c(C)c1C(=O)COc1ncnc2cc([N+](=O)[O-])ccc12`: the IC50 was 19.8 µM (inactive).

As to `Cc1cccc(NC(=O)c2nc[nH]c2C(=O)NCCCNC(=O)c2[nH]cnc2C(=O)Nc2cccc(C)c2)c1`, the IC50 is > 79 µM (inactive).

With `COc1cccc(NC(=O)c2oc3ccc(S(=O)(=O)N4CCOCC4)cc3c2C)c1`, the IC50 is 19.5 µM (inactive).

Turning to `CN1CCc2nc3ccccc3c(C(=O)OCC(=O)N(CCC#N)c3ccccc3)c2C1`, the IC50 is > 79 µM (inactive).

With `CCc1nc(N2CCN(C(=O)c3ccco3)CC2)c2oc3ccccc3c2n1`, the IC50 is 24.7 µM (inactive).

In the case of `NC(=O)c1nsc(C(=O)N(c2ccccc2)C(C(=O)NC2CCCC2)c2ccc3ncccc3c2)c1N` (stereo not given), the IC50 was 6.5 µM.

As to `COc1cc(-c2cnc3c(NC=O)cc(-c4ccsc4)cn23)cc(OC)c1OC`, the 50% inhibitory concentration (IC50) is 6.13 µM.

With `COc1cc(C(=O)N/N=C/c2ccc(OC(=O)c3cccc(C)c3)c(OC)c2)ccc1O`, the IC50 was 14.2 µM (inactive).

Take `CCOC(=O)C1=C(CC)Nc2ccccc2N=C1NC(=O)c1ccc(S(=O)(=O)N(C)C)cc1`: the IC50 was > 79 µM (inactive).

In the case of `Cc1nc2ccccc2c2c(N)c3ccccc3n12`, the IC50 is 32.1 µM (inactive).

Regarding `COC(=O)/C(=C(O)\C=C\c1ccccc1[N+](=O)[O-])c1nc2ccccc2[nH]1`, the IC50 was 13.5 µM (inactive).

In the case of `COc1cc(NC(=O)c2cc3ccccc3cc2OC)ccc1NC(=O)c1cccs1`, the concentration for half-maximal inhibition (IC50) was 3.78 µM.

Turning to `C[C@H]1Cn2cnc(C(=O)N[C@@H](Cc3c[nH]c4ccccc34)C(=O)OC(C)(C)C)c2C(=O)N1`, the IC50 was 24.7 µM (inactive).

For `COc1cccc(OC)c1C(=O)Nc1cc(C)nn1-c1nc2ccccc2[nH]1`, the 50% inhibitory concentration (IC50) is 4.52 µM.

In the case of `N#Cc1ccccc1S(=O)(=O)N1CCN(c2nc(-c3cccnc3)nc3ccccc23)CC1`, the IC50 was 8.75 µM.

Turning to `CCC(c1nnnn1Cc1ccccc1)N1CCC(n2c(=O)[nH]c3ccccc32)CC1` (stereo not given), the IC50 was 1.98 µM.

`COc1cc(/C=C(\C#N)c2nc3ccc(C)cc3[nH]2)c([N+](=O)[O-])cc1OC`: the IC50 is 26.4 µM (inactive).

With `CCC(=O)Nc1cccc(-c2nnc(-c3cccc(NC(=O)CC)c3)o2)c1`, the IC50 was > 79 µM (inactive).

On to `CN(CC1COc2ccccc2O1)c1nc(-c2cccnc2)nc2ccccc12` (stereo not given), for which the IC50 is 18.9 µM (inactive).

`Cc1ccc(C(C(=O)NCc2ccccc2)N(Cc2ccco2)C(=O)c2snc(C(N)=O)c2N)o1` (stereo not given): the IC50 was 8.59 µM.

On to `COc1ccc(C(=O)O/N=C(/c2ccccc2)c2ccncc2)cc1OC`, for which the IC50 is 15.9 µM (inactive).

Regarding `O=C/C(=C\Nc1ccccn1)c1nc2cc(Cl)ccc2o1`, the IC50 is > 79 µM (inactive).

As to `COC(=O)c1cc2ccc(OC)cc2c2cc(OC)c(OC)cc12`, the IC50 was > 79 µM (inactive).

`COc1ccc(C(=O)Nc2cccc(/C(C)=N/NC(=O)c3ccc([N+](=O)[O-])c(C)c3)c2)cc1OC`: the IC50 was 18.7 µM (inactive).

As to `O=c1cc(-c2cccnc2)oc2c1ccc1ccccc12`, the IC50 is 16.4 µM (inactive).

Consider `O=c1oc2ccc3ccccc3c2cc1-c1nnc(-c2ccccc2)o1`, for which the IC50 is > 79 µM (inactive).

Take `COc1cc2c(cc1OC)CN(c1nc(-c3cccnc3)nc3ccccc13)CC2`: the IC50 was 6.71 µM.

With `COc1ccc2oc(C(=O)Nc3ccc(N4CCOCC4)cc3)c(C)c2c1`, the IC50 is > 79 µM (inactive).

For `O=C(CN(c1ccc2c(c1)OCCO2)S(=O)(=O)c1ccccc1)Nc1ccc2c(c1)OCO2`, the IC50 is 14.7 µM (inactive).

Regarding `C=CC[C@@H](CC(=O)N[C@H](CO)Cc1ccccc1)C(=O)N[C@@H](COC(=O)[C@@H](CC=C)CC(=O)OC(C)(C)C)Cc1ccccc1`, the IC50 is 45.4 µM (inactive).

For the compound `COc1ccccc1OCC(=O)Nc1cccc(-c2nnc(-c3ccco3)o2)c1`, the IC50 was > 79 µM (inactive).

As for `COc1ccc(-c2cc(NC(C)=O)c3ncc(-c4cccc(C(C)=O)c4)n3c2)cc1OC`, the IC50 was 8.06 µM.

For the compound `COc1ccc(N(Cc2cc3cc(OC)ccc3[nH]c2=O)C(=O)c2cccnc2)cc1`, the IC50 was > 79 µM (inactive).

On to `COc1ccc(-c2cc(C(=O)N(C)Cc3ccc(OC)c(OC)c3OC)c3ccccc3n2)cc1OC`, for which the IC50 was 10.2 µM (inactive).

Take `CN(C(=O)c1sc2nc(N3CCOCC3)c3c(c2c1N)CCCC3)c1ccccc1`: the 50% inhibitory concentration (IC50) is 9.97 µM.

As for `COc1cc(NC(=O)c2cc3nc(-c4ccccc4)cc(-c4ccccc4)n3n2)cc(OC)c1OC`, the half-maximal inhibitory concentration (IC50) was 7.15 µM.

For the compound `O=[N+]([O-])c1ccc(Nc2nc(N/N=C/c3cccc(F)c3)nc(N3CCCC3)n2)cc1`, the IC50 was 10.2 µM (inactive).
